Several values for one entry are separate records, joined by “and”; a condition that tells them apart may be missing. Identical values can stand only once.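 Grown in 96-well plates, cells were treated for 48 hours with each compound at five concentrations. Insufficient inhibition: endpoint recorded as highest concentration tested. At the GI50, growth is halved. TGI marks complete inhibition of growth.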
What was measured:
Assay in all cases: NCI tumour cell line growth inhibition, 48 h
SNB-19 CNS = tested on: SNB-19 CNS
OVCAR-3 ovarian = tested on: OVCAR-3 ovarian
HOP-62 NSCLC = tested on: HOP-62 NSCLC
MALME-3M melanoma = tested on: MALME-3M melanoma
SW-620 colon = tested on: SW-620 colon
HCT-116 colon = tested on: HCT-116 colon
NCI-H23 lung = tested on: NCI-H23 lung
OVCAR-8 ovarian = tested on: OVCAR-8 ovarian
UO-31 renal = tested on: UO-31 renal
MDA-MB-435 = tested on: MDA-MB-435

| Compound | GI50 (SNB-19 CNS) [µM] | TGI (SNB-19 CNS) [µM] | GI50 (OVCAR-3 ovarian) [nM] | TGI (OVCAR-3 ovarian) [µM] | GI50 (HOP-62 NSCLC) [µM] | TGI (HOP-62 NSCLC) [µM] | GI50 (MALME-3M melanoma) [µM] | TGI (MALME-3M melanoma) | GI50 (SW-620 colon) [nM] | TGI (SW-620 colon) [µM] | GI50 (HCT-116 colon) [nM] | GI50 (NCI-H23 lung) [µM] | TGI (NCI-H23 lung) [µM] | GI50 (OVCAR-8 ovarian) [µM] | TGI (OVCAR-8 ovarian) [µM] | GI50 (UO-31 renal) [nM] | TGI (UO-31 renal) [µM] | GI50 (MDA-MB-435) [nM] | TGI (MDA-MB-435) [µM] | TGI (HCT-116 colon) [µM] |
| --- | --- | --- | --- | --- | --- | --- | --- | --- | --- | --- | --- | --- | --- | --- | --- | --- | --- | --- | --- | --- |
| COc1cc([C@@H]2c3cc4c(cc3[C@H](OC3OC5COC(c6ccccc6)OC5C(O)C3O)[C@H]3COC(=O)[C@H]23)OCO4)cc(OC)c1OC (stereo partly drawn) | 0.405 | 16 | 282 | 0.711 | 0.456 | 5.32 | 1.17 | 4.89 µM | 396 | 10.8 | 346 | 0.418 | 14.5 | 0.355 | 2.12 | 366 | 3.85 | 245 | 3.08 |  |
| COc1ccc(C(=O)CC2(O)C(=O)Nc3c(Cl)ccc(Cl)c32)cc1 (stereo not drawn) | 4.68 | > 100 | 701 | 3.75 | 3.42 | > 100 | 8.96 | > 100 µM | 503 | > 100 | 720 | 4.61 | > 60.6 | 3.62 | 60.3 | 6650 | > 100 | 225 | 0.649 | 23.9 |
| C1=C[C@@H]2c3ccc4cnccc4c3NC[C@@H]2C1 |  | > 100 |  | > 100 |  | > 100 |  | > 100 µM |  | > 100 |  |  | > 100 |  | > 100 |  | > 100 |  | > 100 | > 100 |
| COc1cc(-c2cc(-c3ccc(N(C)C)cc3)nc(N3CCC(O)CC3)c2C#N)cc(OC)c1OC | 2.44 | 23.8 | 1460 | 3.97 | 0.953 | 24.3 | 0.475 | 1.54 µM | 448 | > 35.6 | 287 | 1.35 | 6.74 | 0.485 | > 45.7 | 349 | 3.34 | 325 | 1.27 | 1.65 |
| O=C1CCCC1C(=O)Nc1ccc2ccccc2c1 (stereo not drawn) |  | > 100 |  | > 100 |  | > 100 |  | > 100 µM |  | > 100 |  |  | > 100 |  | > 100 |  | > 100 |  | > 100 | > 100 |
| CC(C)Oc1cc(OCC(=O)O)cc(C(=O)N(CCC(N)=O)C(=O)Nc2ccc(C(=O)O)cc2OC(C)C)c1 | > 100 | > 100 | > 100000 | > 100 | > 100 | > 100 | > 100 | > 100 µM | > 100000 | > 100 | > 100000 | > 100 | > 100 | > 100 | > 100 | > 100000 | > 100 | > 100000 | > 100 | > 100 |
| COc1ccc(/C=C2/SC(=Nc3c(C)nn(-c4ccccc4)c3N)NC2=O)cc1 | 7.68 | > 100 | 2600 | 5.9 | 4.12 | 39.9 | 3.77 | 22.1 µM | 3310 | 13.9 | 3300 | 5.69 | 59.5 | 13.7 | 77.9 | 2830 | 19 | 1270 | 3.97 | 12.5 |
| O=C(Nc1ccc(Cl)c(Cl)c1)Nc1ccc(Cl)c([N+](=O)[O-])c1 | 1.38 | 5.29 | 889 | 3.66 | 2.06 | 6.04 | 0.915 | 4.96 µM | 1100 | 4.23 | 813 | 0.698 | 2.69 | 1.44 | 8.91 | 830 | 2.92 | 1160 | 4.9 | 3.18 |
| CCc1nc(N)nc(N)c1-c1ccc(Cl)cc1 | 7.75 | > 100 | 36300 | > 100 | 26.7 | > 100 | 59.3 | > 100 µM and 99.6 µM | 3990 | > 100 | 2850 | 7.62 | > 100 |  | > 100 | 14500 | > 100 | 4600 | > 100 | > 100 |
| CCOC(=O)c1cnc2ccc(Cl)cc2c1NCCCN(C)C | 51.1 | > 100 | 28100 | 97.7 | 23 | 94.8 | 19.1 | 38.7 µM | 13400 | 74.6 | 10200 | 32.7 | > 100 | 11.6 | 47 | 16300 | 57 | 17900 | 43.5 | > 100 |
| NC(=O)C/C=C/CC(N)=O |  | > 100 |  | > 100 |  | > 100 |  | > 100 µM |  | > 100 |  |  | > 100 |  | > 100 |  | > 100 |  | > 100 | > 100 |

— PubChem BioAssay (NCI)
